According to the C3SDB collision cross section collection:

What was measured:
[1] = instrument: DT, single field, calibrated with Agilent tune mix (Agilent)
[2] = instrument: DT, stepped-field

CCCCCCCCCCCCCCCCC(=O)N[C@@H](CO)[C@H](O)CCCCCCCCCCCCCCC [Cer(35:0)]
collision cross section (N2) ([1]; [M+H]+): 258.6 Å²

CCCCCCCCCCCCC=CC[C@@H](O)[C@H](CO)NC(=O)CCCCCCCCCCCCCCCC [Cer(35:1)]
collision cross section (N2) ([1]; [M+H]+): 256.3 Å²

CCCCCCCCCCCCC=CC[C@@H](O)[C@H](CO)NC(=O)CC=CCCCCCCCCCCCCCC [Cer(36:2)]
collision cross section (N2) ([1]; [M+H]+): 255.4 Å²

CCCCCCCCCCCCC=CC[C@@H](O)[C@H](CO)NC(=O)CCCCCCCCCCCCCCCCCCC [Cer(38:1)]
collision cross section (N2) ([1]; [M+HCOO]-): 263.4 Å²
collision cross section (N2) ([1]; [M+H]+): 267.3 Å²
collision cross section (N2) ([1]; [M+Na]+): 273.1 Å²

CCCCCCCCCCCCC=CC[C@@H](O)[C@H](CO)NC(=O)CCCCCCCCCCCCCCCCCCCC [Cer(39:1)]
collision cross section (N2) ([1]; [M+H]+): 269 Å²

CCCCCCCCCCCCC=CC[C@@H](O)[C@H](CO)NC(=O)CCCCCCCCCCCCCCCCCCCCC [Cer(40:1)]
collision cross section (N2) ([1]; [M+HCOO]-): 269.4 Å²
collision cross section (N2) ([1]; [M+H]+): 272.3 Å²

CCCCCCCCCCCCC=CC[C@@H](O)[C@H](CO)NC(=O)CCCCCCCCCCCCCCCCCCCCCC [Cer(41:1)]
collision cross section (N2) ([1]; [M+H]+): 275.6 Å²
collision cross section (N2) ([1]; [M+Na]+): 281.6 Å²

CCCCCCCCCCCCC=CC[C@@H](O)[C@H](CO)NC(=O)CCCCCCCCCCCCCCCCCCCCCCC [Cer(42:1)]
collision cross section (N2) ([1]; [M+H]+): 279.3 Å²
collision cross section (N2) ([1]; [M-H]-): 267.7 Å²

CCCCCCCCCCCCC=CC[C@@H](O)[C@H](CO)NC(=O)CC=CCCCCCCCCCCCCCCCCCCCC [Cer(42:2)]
collision cross section (N2) ([1]; [M+HCOO]-): 274.4 Å²
collision cross section (N2) ([1]; [M+Na]+): 278.8 Å²
collision cross section (N2) ([1]; [M-H]-): 266.1 Å²

CCCCCCCCCCCCC=CC[C@@H](O)[C@H](CO[C@@H]1O[C@H](CO)[C@@H](O)C(O)C1O)NC(=O)CCCCCCCCCCCCCCCCCCCCCCCCC (stereo partly specified) [GlcCer(44:1)]
collision cross section (N2) ([1]; [M+H]+): 307.2 Å²
collision cross section (N2) ([1]; [M+Na]+): 308.7 Å²

CCCCCC/C=C\CCCCCCCCC(=O)OC[C@@H](O)COP(=O)([O-])OCC[N+](C)(C)C [LPC(17:1)]
collision cross section (N2) ([1]; [M+H]+): 228.4 Å²

CCCCCCCCCCCCCCCCCC(=O)OC[C@@H](O)COP(=O)(O)OC[C@H](N)C(=O)O [LPS(18:0)]
collision cross section (N2) ([1]; [M+H]+): 228.3 Å²
collision cross section (N2) ([1]; [M+Na]+): 232.1 Å²

CCCCCCCCCCCCC=CC[C@@H](O)[C@H](COP(=O)([O-])OCC[N+](C)(C)C)NC(=O)CCCCCCCCCCCCCCCCCCCCCC [SM(41:01)]
collision cross section (N2) ([2]; [M+H]+): 301.14 Å²
collision cross section (N2) ([2]; [M+Na]+): 299.31 Å²

CCCCCCCCCCCCC=CC[C@@H](O)[C@H](COP(=O)([O-])OCC[N+](C)(C)C)NC(=O)CCCCCCCCCCCCCCCCCCCCCCC [SM(42:01)]
collision cross section (N2) ([2]; [M+Cl]-): 305.77 Å²
collision cross section (N2) ([2]; [M+HCOO]-): 306.96 Å²
collision cross section (N2) ([2]; [M+H]+): 303.17 Å²
collision cross section (N2) ([2]; [M+Na]+): 302.6 Å²

CCCCCCCCCCCCC=CC[C@@H](O)[C@H](COP(=O)([O-])OCC[N+](C)(C)C)NC(=O)CC=CCCCCCCCCCCCCCCCCCCCC [SM(42:02)]
collision cross section (N2) ([2]; [M+Cl]-): 304.71 Å²
collision cross section (N2) ([2]; [M+HCOO]-): 305.63 Å²
collision cross section (N2) ([2]; [M+H]+): 301.43 Å²
collision cross section (N2) ([2]; [M+Na-H2O]+): 301.19 Å²
collision cross section (N2) ([2]; [M+Na]+): 300.53 Å²

CCCCCCCCCCCCC=CC[C@@H](O)[C@H](COP(=O)([O-])OCC[N+](C)(C)C)NC(=O)CC=CCC=CCC=CCCCCCCCCCCCCCC [SM(42:04)]
collision cross section (N2) ([2]; [M+H]+): 297.81 Å²

CCCCCCCCCCCCC=CC[C@@H](O)[C@H](COP(=O)([O-])OCC[N+](C)(C)C)NC(=O)CCCCCCCCCCCCCCCCCCCCCCCCC [SM(44:01)]
collision cross section (N2) ([2]; [M+H]+): 309.76 Å²
collision cross section (N2) ([2]; [M+Na]+): 307.86 Å²

CCCCCCCCCCCCC=CC[C@@H](O)[C@H](COP(=O)([O-])OCC[N+](C)(C)C)NC(=O)CC=CCC=CCCCCCCCCCCCCCCCCCCC [SM(44:03)]
collision cross section (N2) ([2]; [M+Na]+): 304.66 Å²
